In PMC11472313, “Development of Fragment-Based Inhibitors of the Bacterial Deacetylase LpxC with Low Nanomolar Activity” (Journal of Medicinal Chemistry, 2024):
≈ marks a conversion by molar mass, not a printed value.

How the values were obtained:
E. coli LpxC C63A = target: T1, E. coli LpxC C63A (Escherichia coli, UniProt P0A725, C63A); assay: fluorescence-based E. coli LpxC C63A enzyme inhibition assay; format: biochemical; details: Ki E. coli LpxC C63A, from IC50 via Cheng–Prusoff
T1 construct: made in house; host or cells: E. coli BL21(DE3)
Method: In order to determine the inhibitory activities of the compounds of interest toward E. coli LpxC, a fluorescence-based enzyme assay was deployed, in which the formed deacetylated natural product UDP-3-O-[(R)-3-hydroxymyristoyl]glucosamine (2) is transformed into a fluorescent isoindole with o-phthaldialdehyde and 2-mercaptoethanol.[48],[49] […] The KM of E. coli LpxC C63A was determined experimentally using a mass spectrometry-based LpxC assay (Figure S8, Supporting Information, vide infra).
A fluorescence-based microplate assay for LpxC activity was performed as described by Clements et al.[48] The wells in a black, nonbinding, 96-well fluorescence microplate (Greiner Bio One, Frickenhausen) were filled with 93 μL of 26.9 μM UDP-3-O-[(R)-3-hydroxymyristoyl]-N-acetylglucosamine in assay buffer [40 mM sodium morpholinoethanesulfonic acid (pH 6.0), 80 μM dithiothreitol, 0.02% Brij 35]. In order to assay the inhibitors at final concentrations from 20 nM up to 20 μM, 2 μL of a respective dilution of the compounds in DMSO were added. The addition of 5 μL of a solution of purified LpxC (10 μg mL^–1) in assay buffer led to final concentrations of 25 μM UDP-3-O-[(R)-3-hydroxymyristoyl]-N-acetylglucosamine, 15 nM E. coli LpxC C63A, 2% DMSO, and from 20 nM up to 20 μM inhibitor. The microplate was incubated for 30 min at 37 °C in a plate shaker. Then, the biochemical reaction was stopped by adding 40 μL of 0.625 M sodium hydroxide. The reaction mixture was further incubated for 10 min and neutralized by adding 40 μL of 0.625 M acetic acid. The deacetylated product UDP-3-O-[(R)-3-hydroxymyristoyl]glucosamine was converted into a fluorescing isoindole by adding 120 μL of an o-phthaldialdehyde-2-mercaptoethanol solution, which was prepared by dissolving 10 mg of o-phthaldialdehyde in 1 mL of methanol, diluting the mixture with 24 mL of a sodium borate buffer (0.1 M), and finally adding 2.5 μL of 2-mercaptoethanol.[49] Fluorescence was measured with a TriStar^2 S LB 942 plate reader (Berthold, Bad Wildbad) at 340 nm excitation and 460 nm emission wavelengths. Each assay was performed at least three times on separate days. The IC50 values were calculated via Probit-log concentration graphs with the aid of the software Origin and were subsequently converted into Ki values using the Cheng–Prusoff equation.[75],[76]

E. coli BL21(DE3) [1] = assay: MIC, broth microdilution; format: cell-based; details: Escherichia coli, 20 h, 37 °C, LB
Method: (§1) Besides measuring the inhibitory activities toward E. coli LpxC C63A, the antibacterial activities of the synthesized hydroxamic acids were evaluated by determining their minimal inhibitory concentrations (MIC) in broth dilution tests as well as by performing disc diffusion assays (Table 1).
(§2) The MIC values of the compounds were determined by means of the microdilution method using 96-well plates.
(§3) The overnight suspension was diluted 1:1000 in fresh LB. 10 μL of a 2-fold dilution series of the compounds in DMSO and 90 μL of LB were dispensed to each well of a 96-well plate. Then, 100 μL of the inoculated medium was added, resulting in 5 × 10^5 cfu mL^–1, 5% DMSO, and a final concentration range of the test compounds between 64 and 0.016 μg mL^–1. The plates were incubated for 20 h at 37 °C. The MIC was defined as the lowest concentration of the compounds that prevented visible growth after incubation. Each assay was performed at least three times on separate days.

E. coli D22 [2] = assay: MIC, broth microdilution; format: cell-based; details: Escherichia coli, 20 h, 37 °C, LB
Method: as §1, §2, §3

E. coli BL21(DE3) [3] = assay: disc diffusion assay; format: cell-based; details: 0.15 μmol per 6 mm disc
Method: as §1
(§4) The disc diffusion assays against E. coli BL21(DE3) and the defective strain E. coli D22 were performed as follows: liquid cultures of the bacteria were grown overnight in lysogeny broth (LB)[73] at 37 °C and 200 rpm. 150 μL of an overnight cell suspension was spread evenly onto LB agar plates. 0.15 μmol of each compound (dissolved in 10 or 15 μL DMSO) were applied onto circular filter paper (Ø = 6 mm, Cytiva). Pure DMSO, serving as a negative control, and CHIR-090, serving as a positive control, were also spotted. The agar plates were incubated overnight at 37 °C, and the diameter of the zone of growth inhibition was measured for each compound. Each assay was performed at least three times on separate days.

E. coli D22 [4] = assay: disc diffusion assay; format: cell-based; details: 0.15 μmol per 6 mm disc
Method: as §1, §4

LasB = target: T2, LasB (Pseudomonas aeruginosa, UniProt Q02RJ6); assay: FRET-based LasB in vitro inhibition assay; format: biochemical, P. aeruginosa PA14
T2 construct: The elastase LasB of P. aeruginosa is a secreted metalloprotease; endogenous in cells; host or cells: P. aeruginosa PA14 culture supernatant
Method: Purification of LasB from P. aeruginosa PA14 supernatant and the subsequent performance of the FRET-based in vitro inhibition assay was performed as described previously.[66] The TACE (ADAM-17) inhibitor screening kit was purchased from Sigma-Aldrich (Saint Louis, MO). MMPs 1–3 along with the SensoLyte 520 Generic MMP Activity Kit Fluorimetric were purchased from AnaSpec (Fremont, CA, USA). The assays were performed according to the guidelines of the respective manufacturer. Fluorescence signals were measured using a CLARIOstar plate reader (BMG Labtech, Ortenberg, Germany).

T1 sequence (P0A725 whole entry C63A): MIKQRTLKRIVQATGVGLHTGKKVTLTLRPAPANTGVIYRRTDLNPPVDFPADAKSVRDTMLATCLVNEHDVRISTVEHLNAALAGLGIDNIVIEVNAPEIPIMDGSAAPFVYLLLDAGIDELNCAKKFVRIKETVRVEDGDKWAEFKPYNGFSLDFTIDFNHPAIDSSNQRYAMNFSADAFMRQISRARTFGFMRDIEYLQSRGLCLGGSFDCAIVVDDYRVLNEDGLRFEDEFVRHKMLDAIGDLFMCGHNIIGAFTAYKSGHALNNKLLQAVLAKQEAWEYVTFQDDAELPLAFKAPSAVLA
T2 sequence (Q02RJ6 198-498): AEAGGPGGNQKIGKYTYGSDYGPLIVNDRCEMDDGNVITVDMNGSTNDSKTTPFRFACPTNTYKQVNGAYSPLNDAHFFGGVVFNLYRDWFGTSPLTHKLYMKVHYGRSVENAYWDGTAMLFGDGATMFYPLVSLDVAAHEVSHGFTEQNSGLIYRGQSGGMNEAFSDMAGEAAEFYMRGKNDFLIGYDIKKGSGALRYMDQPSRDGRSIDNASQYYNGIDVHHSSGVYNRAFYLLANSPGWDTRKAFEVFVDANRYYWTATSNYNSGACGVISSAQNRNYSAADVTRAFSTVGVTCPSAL

Compound `O=C(NO)[C@@H](COCc1ccccc1)OCc1ccc(C#Cc2ccc(CN3CCOCC3)cc2)cc1` [(R)-11a, (R)-3-(Benzyloxy)-N-hydroxy-2-[(4-{[4-(morpholinomethyl)phenyl]ethynyl}benzyl)oxy]propanamide] has a Ki (E. coli LpxC C63A) of 3.62 ± 0.64 µM, an MIC (E. coli BL21(DE3) [1]) greater than 32 µg/mL and an MIC (E. coli D22 [2]) of 2 µg/mL (≈ 4 µM). The “Inhibition zone E. coli BL21(DE3)” value (E. coli BL21(DE3) [3]) was no more than 6 mm and the “Inhibition zone E. coli D22” value (E. coli D22 [4]) was 15.7 ± 1.2 mm.
In the case of `O=C(NO)[C@@H](CNCc1ccccc1)OCc1ccc(C#Cc2ccc(CN3CCOCC3)cc2)cc1` [(R)-12a, (R)-3-(Benzylamino)-N-hydroxy-2-[(4-{[4-(morpholinomethyl)phenyl]ethynyl}benzyl)oxy]propanamide], the Ki (E. coli LpxC C63A) is reported as 5.9 ± 2.02 µM, the MIC (E. coli BL21(DE3) [1]) is reported as 32 µg/mL (≈ 64 µM) and the MIC (E. coli D22 [2]) is reported as 4 µg/mL (≈ 8.01 µM). The “Inhibition zone E. coli BL21(DE3)” value (E. coli BL21(DE3) [3]) was 10.7 ± 1.2 mm and the “Inhibition zone E. coli D22” value (E. coli D22 [4]) was 20.0 ± 1.8 mm.
In the case of `O=C(NC[C@@H](OCc1ccc(C#Cc2ccc(CN3CCOCC3)cc2)cc1)C(=O)NO)c1ccccc1` [(R)-13a, (R)-N-{3-(Hydroxyamino)-2-[(4-{[4-(morpholinomethyl)phenyl]ethynyl}benzyl)oxy]-3-oxopropyl}benzamide], the Ki (E. coli LpxC C63A) is reported as 2.56 ± 1.08 µM, the MIC (E. coli D22 [2]) is reported as 4 µg/mL (≈ 7.79 µM) and the “Inhibition zone E. coli BL21(DE3)” value (E. coli BL21(DE3) [3]) is reported as 9.7 ± 0.6 mm. The “Inhibition zone E. coli D22” value (E. coli D22 [4]) was 18.0 ± 2.0 mm.
Compound `O=C(NC[C@@H](OCc1ccc(C#Cc2ccc(CN3CCOCC3)cc2)cc1)C(=O)NO)c1ccc(-c2ccccc2)cc1` [(R)-13b] has a Ki (E. coli LpxC C63A) greater than 2.54 µM, an MIC (E. coli BL21(DE3) [1]) greater than 16 µg/mL and an MIC (E. coli D22 [2]) greater than 16 µg/mL. For the same compound, the “Inhibition zone E. coli BL21(DE3)” value (E. coli BL21(DE3) [3]) was no more than 6 mm and the “Inhibition zone E. coli D22” value (E. coli D22 [4]) was no more than 6 mm.
`O=C(NC[C@@H](OCc1ccc(C#Cc2ccc(CN3CCOCC3)cc2)cc1)C(=O)NO)c1cccc(-c2ccccc2)c1` [(R)-13c] was tested, and the Ki (E. coli LpxC C63A) was greater than 2.54 µM, the MIC (E. coli BL21(DE3) [1]) was greater than 16 µg/mL and the MIC (E. coli D22 [2]) was greater than 16 µg/mL. For the same compound, the “Inhibition zone E. coli BL21(DE3)” value (E. coli BL21(DE3) [3]) was no more than 6 mm and the “Inhibition zone E. coli D22” value (E. coli D22 [4]) was no more than 6 mm.
`O=C(NC[C@@H](OCc1ccc(C#Cc2ccc(CN3CCOCC3)cc2)cc1)C(=O)NO)c1ccc(Oc2ccccc2)cc1` [(R)-13d] was tested, and the Ki (E. coli LpxC C63A) was greater than 2.54 µM, the MIC (E. coli BL21(DE3) [1]) was greater than 16 µg/mL and the MIC (E. coli D22 [2]) was greater than 16 µg/mL. For the same compound, the “Inhibition zone E. coli BL21(DE3)” value (E. coli BL21(DE3) [3]) was no more than 6 mm and the “Inhibition zone E. coli D22” value (E. coli D22 [4]) was no more than 6 mm.
`O=C(NC[C@@H](OCc1ccc(C#Cc2ccc(CN3CCOCC3)cc2)cc1)C(=O)NO)c1ccc2ccccc2n1` [(R)-13e] was tested, and the Ki (E. coli LpxC C63A) was greater than 2.54 µM, the MIC (E. coli BL21(DE3) [1]) was greater than 16 µg/mL and the MIC (E. coli D22 [2]) was 8 µg/mL (≈ 14.2 µM). The “Inhibition zone E. coli BL21(DE3)” value (E. coli BL21(DE3) [3]) was no more than 6 mm and the “Inhibition zone E. coli D22” value (E. coli D22 [4]) was 12.7 ± 1.6 mm.
In the case of `O=C(NC[C@@H](OCc1ccc(C#Cc2ccc(CN3CCOCC3)cc2)cc1)C(=O)NO)c1cnc2ccccc2c1` [(R)-13f], the Ki (E. coli LpxC C63A) is reported as greater than 2.54 µM, the MIC (E. coli BL21(DE3) [1]) is reported as greater than 16 µg/mL and the MIC (E. coli D22 [2]) is reported as greater than 16 µg/mL. The “Inhibition zone E. coli BL21(DE3)” value (E. coli BL21(DE3) [3]) was no more than 6 mm and the “Inhibition zone E. coli D22” value (E. coli D22 [4]) was 10.3 ± 1.2 mm.
With `O=C(NC[C@@H](OCc1ccc(C#Cc2ccc(CN3CCOCC3)cc2)cc1)C(=O)NO)c1cc2ccccc2[nH]1` [(R)-13g] the Ki (E. coli LpxC C63A) was greater than 2.54 µM, the MIC (E. coli BL21(DE3) [1]) was greater than 16 µg/mL and the MIC (E. coli D22 [2]) was 16 µg/mL (≈ 29 µM). The “Inhibition zone E. coli BL21(DE3)” value (E. coli BL21(DE3) [3]) was no more than 6 mm and the “Inhibition zone E. coli D22” value (E. coli D22 [4]) was 9.0 ± 1.0 mm.
`O=C(NC[C@@H](OCc1ccc(C#Cc2ccc(CN3CCOCC3)cc2)cc1)C(=O)NO)c1ccc2[nH]ccc2c1` [(R)-13j] gave a Ki (E. coli LpxC C63A) of 1.15 ± 0.317 µM, an MIC (E. coli BL21(DE3) [1]) greater than 16 µg/mL and an MIC (E. coli D22 [2]) of 16 µg/mL (≈ 29 µM). The “Inhibition zone E. coli BL21(DE3)” value (E. coli BL21(DE3) [3]) was no more than 6 mm and the “Inhibition zone E. coli D22” value (E. coli D22 [4]) was 11.7 ± 1.2 mm.
In the case of `O=C(NC[C@@H](OCc1ccc(C#Cc2ccc(CN3CCOCC3)cc2)cc1)C(=O)NO)c1cc(-c2ccccc2)[nH]n1` [(R)-13m], the Ki (E. coli LpxC C63A) is reported as greater than 2.54 µM, the MIC (E. coli BL21(DE3) [1]) is reported as greater than 16 µg/mL and the MIC (E. coli D22 [2]) is reported as greater than 16 µg/mL. For the same compound, the “Inhibition zone E. coli BL21(DE3)” value (E. coli BL21(DE3) [3]) was no more than 6 mm and the “Inhibition zone E. coli D22” value (E. coli D22 [4]) was 9.7 ± 1.3 mm.
Compound `Cc1noc(C)c1C(=O)NC[C@@H](OCc1ccc(C#Cc2ccc(CN3CCOCC3)cc2)cc1)C(=O)NO` [(R)-13n] has a Ki (E. coli LpxC C63A) greater than 2.54 µM, an MIC (E. coli BL21(DE3) [1]) greater than 16 µg/mL and an MIC (E. coli D22 [2]) of 8 µg/mL (≈ 15 µM). The “Inhibition zone E. coli BL21(DE3)” value (E. coli BL21(DE3) [3]) was no more than 6 mm, the “Inhibition zone E. coli D22” value (E. coli D22 [4]) was 16.3 ± 1.6 mm and the “LasB Inhibition at 20 μM” value (LasB; 20 μM) was “no inhibitory activity”. For the same compound, the inhibition at 20 µM (LasB; read-out: LasB Inhibition at 20 μM) was less than 10%.
